Measurements published in the NIST ThermoML archive (doi:10.1016/j.jct.2010.08.019).
Numbers after ± are expanded uncertainties.

Experiment: xn = mol fraction of the nth substance listed
Details: for surface tension liquid-gas: Wilhelmy-plate method; for viscosity / mass density: 101 kPa, Liquid; for viscosity: Falling or rolling sphere viscometry; for mass density: Vibrating tube method

C1CCOCC1 [tetrahydropyran] + CC(C)CC(C)(C)C
Details	mass density [kg/m3]	surface tension liquid-gas [mN/m]	viscosity [mPa·s]
293.15 K, x1 = 0.0502	697.82 ± 0.18	18.9 ± 0.4	0.506 ± 0.009
293.15 K, x1 = 0.1	703.85 ± 0.18	19 ± 0.4	0.514 ± 0.009
293.15 K, x1 = 0.1499	710.17 ± 0.18	19.2 ± 0.4	0.524 ± 0.009
293.15 K, x1 = 0.2	716.8 ± 0.18	19.4 ± 0.4	0.533 ± 0.009
293.15 K, x1 = 0.25	723.72 ± 0.18	19.6 ± 0.4	0.544 ± 0.009
293.15 K, x1 = 0.3	730.98 ± 0.19	19.8 ± 0.4	0.553 ± 0.009
293.15 K, x1 = 0.35	738.59 ± 0.19	20.1 ± 0.4	0.564 ± 0.009
293.15 K, x1 = 0.4	746.55 ± 0.19	20.3 ± 0.4	0.577 ± 0.009
293.15 K, x1 = 0.4498	754.88 ± 0.19	20.6 ± 0.4	0.592 ± 0.009
293.15 K, x1 = 0.5001	763.72 ± 0.19	20.9 ± 0.4	0.606 ± 0.009
293.15 K, x1 = 0.5501	772.97 ± 0.2	21.2 ± 0.4	0.623 ± 0.01
293.15 K, x1 = 0.5999	782.67 ± 0.2	21.6 ± 0.4	0.638 ± 0.01
293.15 K, x1 = 0.6501	793 ± 0.2	22 ± 0.4	0.655 ± 0.01
293.15 K, x1 = 0.6999	803.82 ± 0.21	22.5 ± 0.4	0.675 ± 0.01
293.15 K, x1 = 0.75	815.32 ± 0.21	23.1 ± 0.4	0.696 ± 0.01
293.15 K, x1 = 0.8	827.51 ± 0.22	23.6 ± 0.4	0.718 ± 0.01
293.15 K, x1 = 0.8501	840.43 ± 0.22	24.3 ± 0.4	0.743 ± 0.01
293.15 K, x1 = 0.9	854.12 ± 0.23	25.2 ± 0.4	0.771 ± 0.01
293.15 K, x1 = 0.95	868.68 ± 0.24	26.3 ± 0.4	0.803 ± 0.011
293.15 K, x1 = 1	884.27 ± 0.23	27.5 ± 0.4	0.86 ± 0.011
303.15 K, x1 = 0.0502	689.38 ± 0.18	18 ± 0.4	0.452 ± 0.009
303.15 K, x1 = 0.1	695.35 ± 0.18	18.2 ± 0.4	0.455 ± 0.009
303.15 K, x1 = 0.1499	701.6 ± 0.18	18.3 ± 0.4	0.463 ± 0.009
303.15 K, x1 = 0.2	708.16 ± 0.19	18.6 ± 0.4	0.47 ± 0.009
303.15 K, x1 = 0.25	715.01 ± 0.19	18.8 ± 0.4	0.478 ± 0.009
303.15 K, x1 = 0.2999	722.17 ± 0.19	19 ± 0.4	0.488 ± 0.009
303.15 K, x1 = 0.3498	729.67 ± 0.19	19.2 ± 0.4	0.497 ± 0.009
303.15 K, x1 = 0.3998	737.56 ± 0.19	19.5 ± 0.4	0.509 ± 0.009
303.15 K, x1 = 0.4498	745.84 ± 0.19	19.7 ± 0.4	0.52 ± 0.009
303.15 K, x1 = 0.5001	754.6 ± 0.2	20 ± 0.4	0.533 ± 0.009
303.15 K, x1 = 0.5501	763.76 ± 0.2	20.3 ± 0.4	0.546 ± 0.009
303.15 K, x1 = 0.5999	773.38 ± 0.2	20.6 ± 0.4	0.56 ± 0.009
303.15 K, x1 = 0.6501	783.61 ± 0.21	21 ± 0.4	0.574 ± 0.009
303.15 K, x1 = 0.6999	794.32 ± 0.21	21.5 ± 0.4	0.59 ± 0.009
303.15 K, x1 = 0.75	805.72 ± 0.21	22.1 ± 0.4	0.607 ± 0.01
303.15 K, x1 = 0.8	817.78 ± 0.22	22.6 ± 0.4	0.625 ± 0.01
303.15 K, x1 = 0.8501	830.59 ± 0.22	23.3 ± 0.4	0.646 ± 0.01
303.15 K, x1 = 0.9	844.14 ± 0.23	24.2 ± 0.4	0.67 ± 0.01
303.15 K, x1 = 0.95	858.58 ± 0.24	25.2 ± 0.4	0.699 ± 0.01
303.15 K, x1 = 1	874.07 ± 0.23	26.2 ± 0.4	0.749 ± 0.01
313.15 K, x1 = 0.0501	680.92 ± 0.19	17.1 ± 0.4	0.407 ± 0.009
313.15 K, x1 = 0.1002	686.85 ± 0.19	17.3 ± 0.4	0.411 ± 0.009
313.15 K, x1 = 0.1501	693.02 ± 0.19	17.5 ± 0.4	0.416 ± 0.009
313.15 K, x1 = 0.1999	699.48 ± 0.19	17.7 ± 0.4	0.422 ± 0.009
313.15 K, x1 = 0.2501	706.27 ± 0.19	17.9 ± 0.4	0.429 ± 0.009
313.15 K, x1 = 0.3	713.35 ± 0.19	18.1 ± 0.4	0.437 ± 0.009
313.15 K, x1 = 0.3499	720.78 ± 0.19	18.4 ± 0.4	0.444 ± 0.009
313.15 K, x1 = 0.4002	728.64 ± 0.19	18.6 ± 0.4	0.453 ± 0.009
313.15 K, x1 = 0.4502	736.83 ± 0.2	18.9 ± 0.4	0.463 ± 0.009
313.15 K, x1 = 0.4999	745.4 ± 0.2	19.1 ± 0.4	0.473 ± 0.009
313.15 K, x1 = 0.5499	754.47 ± 0.2	19.4 ± 0.4	0.484 ± 0.009
313.15 K, x1 = 0.6	764.05 ± 0.2	19.7 ± 0.4	0.496 ± 0.009
313.15 K, x1 = 0.65	774.13 ± 0.21	20.1 ± 0.4	0.509 ± 0.009
313.15 K, x1 = 0.6998	784.75 ± 0.21	20.6 ± 0.4	0.523 ± 0.009
313.15 K, x1 = 0.75	796.05 ± 0.22	21.2 ± 0.4	0.538 ± 0.009
313.15 K, x1 = 0.8001	808 ± 0.22	21.7 ± 0.4	0.554 ± 0.009
313.15 K, x1 = 0.8501	820.66 ± 0.22	22.4 ± 0.4	0.573 ± 0.009
313.15 K, x1 = 0.9001	834.12 ± 0.23	23.2 ± 0.4	0.596 ± 0.01
313.15 K, x1 = 0.9498	848.37 ± 0.24	24.1 ± 0.4	0.624 ± 0.01
313.15 K, x1 = 1	863.76 ± 0.24	25.1 ± 0.4	0.658 ± 0.01
323.15 K, x1 = 0.0501	672.44 ± 0.19	16.4 ± 0.4	0.366 ± 0.009
323.15 K, x1 = 0.1002	678.3 ± 0.19	16.6 ± 0.4	0.369 ± 0.009
323.15 K, x1 = 0.1501	684.41 ± 0.19	16.7 ± 0.4	0.372 ± 0.009
323.15 K, x1 = 0.1999	690.79 ± 0.19	17 ± 0.4	0.377 ± 0.009
323.15 K, x1 = 0.2501	697.5 ± 0.19	17.2 ± 0.4	0.383 ± 0.009
323.15 K, x1 = 0.3	704.51 ± 0.19	17.3 ± 0.4	0.39 ± 0.009
323.15 K, x1 = 0.3499	711.86 ± 0.19	17.5 ± 0.4	0.398 ± 0.009
323.15 K, x1 = 0.4002	719.63 ± 0.2	17.8 ± 0.4	0.406 ± 0.009
323.15 K, x1 = 0.45	727.72 ± 0.2	18 ± 0.4	0.415 ± 0.009
323.15 K, x1 = 0.5002	736.27 ± 0.2	18.3 ± 0.4	0.424 ± 0.009
323.15 K, x1 = 0.55	745.22 ± 0.2	18.5 ± 0.4	0.433 ± 0.009
323.15 K, x1 = 0.5997	754.63 ± 0.21	18.8 ± 0.4	0.443 ± 0.009
323.15 K, x1 = 0.65	764.68 ± 0.21	19.2 ± 0.4	0.454 ± 0.009
323.15 K, x1 = 0.6998	775.17 ± 0.21	19.6 ± 0.4	0.466 ± 0.009
323.15 K, x1 = 0.75	786.37 ± 0.22	20.1 ± 0.4	0.479 ± 0.009
323.15 K, x1 = 0.8001	798.2 ± 0.22	20.7 ± 0.4	0.493 ± 0.009
323.15 K, x1 = 0.8501	810.77 ± 0.23	21.3 ± 0.4	0.508 ± 0.009
323.15 K, x1 = 0.9002	824.1 ± 0.23	22.1 ± 0.4	0.523 ± 0.009
323.15 K, x1 = 0.95	838.27 ± 0.24	22.9 ± 0.4	0.541 ± 0.009
323.15 K, x1 = 1	853.46 ± 0.24	23.8 ± 0.4	0.565 ± 0.009
